Calls of active or inactive are those of the source. The rule behind the calls is not given here.
What was measured:
Quadruplex DNA [1] = assay: Binding affinity to 3-terminal mt6363 DNA (unknown origin) assessed as dissociation constant by TAMRA-labeled G4 quenching assay; assay type: nucleic-acid assay
4T1 = assay: Cytotoxicity against mouse 4T1 cells assessed as reduction in cell viability incubated for 24 hrs by CCK-8 assay; assay type: functional, cell-based; conditions: 4T1, 24 h
Quadruplex DNA [2] = assay: Binding affinity to 5-terminal mt6363 DNA (unknown origin) assessed as dissociation constant by TAMRA-labeled G4 quenching assay; assay type: nucleic-acid assay
MDA-MB-231 = assay: Cytotoxicity against human MDA-MB-231 cells assessed as reduction in cell viability incubated for 24 hrs by CCK-8 assay; assay type: functional, cell-based; conditions: MDA-MB-231, 24 h
[3] = Cytotoxicity against human MCF-10A assessed as cell growth inhibition incubated for 24 hrs by CCK-8 assay; assay type: toxicity, cell-based; conditions: MCF-10A cells
Mus musculus = assay: Immunostimulatory activity in female BALB/c mouse implanted with mouse 4T1 cells assessed as increase in CD8+ T cells in spleen 2.5 mg/kg, iv by flow cytometry; assay type: functional, organism-based

Kd (Quadruplex DNA [1]) [µM] | Kd (Quadruplex DNA [2]) [µM] | Structure (SMILES) | IC50 (4T1) [µM] | IC50 (MDA-MB-231) [µM] | IC50 at 24 h [3] [µM] | Activity (Mus musculus)
6.3 | 7.3 | C[N+]1=C(/C=C/c2ccc(N(c3ccccc3)c3ccccc3)cc2)C(C)(C)c2ccccc21 | 4.8 | 2.6 | 5 | 
3.2 | 9 | COc1ccc(N(c2ccc(/C=C/c3ccc4ccccc4[n+]3C)cc2)c2ccc(OC)cc2)cc1 | 9.9 | 5.4 | 39.4 | 
2.1 | 4.3 | COc1ccc(N(c2ccc(/C=C/C3=[N+](C)c4ccccc4C3(C)C)cc2)c2ccc(OC)cc2)cc1 | 3.5 | 4 | 8.5 | 

The next lines start with the compound.

Structure (SMILES) | Kd (Quadruplex DNA [1]) [µM] | Kd (Quadruplex DNA [2]) [µM] | IC50 (4T1) [µM] | IC50 (MDA-MB-231) [µM] | IC50 at 24 h [3] [µM] | Activity (Mus musculus)
COc1cccc2c1C(=O)c1c(O)c3c(c(O)c1C2=O)C[C@@](O)(C(=O)CO)C[C@@H]3O[C@H]1C[C@H](N)[C@H](O)[C@H](C)O1 |  |  |  |  |  | Active
C[n+]1c(/C=C/c2ccc(N(c3ccccc3)c3ccccc3)cc2)ccc2ccccc21 | 5 | 5.5 | 9.6 | 3.4 | 38 | 
C[N+]1=C(/C=C/c2ccc(N(c3ccccc3)c3ccccc3)cc2)C(C)(C)c2c1ccc1ccccc21 | 1.1 | 1.4 | 4.3 | 2.8 | 7 | 

— ChEMBL document CHEMBL6074620, “Discovery of a triphenylamine-based ligand that targets mitochondrial DNA G-quadruplexes and activates the cGAS-STING immunomodulatory pathway” (Eur J Med Chem, 2024)
